The nature of series [1]: Ligand displacement with 2,2′-bipyridine, conditional formation constant. To be noted: pH 7.4; bpy competitor; UV–vis. The class given is physicochemical. From the text:
These pKa (H2O) values are lower than those of the complexes formed with the corresponding amino acid hybrids (HQCl-D-Pro, HQCl-D-hPro, Figure S23). Thus, the predominant complex at pH 7.4 is [M(arene)(HL)(H2O)]^2+ in all cases, in which the bidentate ligand coordinates via the (N,O^–) donor set and the pyridinium or pyrrolidinium nitrogens are protonated just like in the isolated complexes (Chart 3). Based on the unchanged spectra (vide supra), these types of complexes show no dissociation at pH = 2, indicating their high stability and hindering the direct determination of the formation constants. Therefore, a ligand displacement experiment was performed using UV–vis spectrophotometry with 2,2′-bipyridine (bpy) as a competitor to determine conditional formation constants at pH = 7.4 (Figure S25). […] Nevertheless, these values indicate a high stability of the complexes in solution, and <1% of dissociation is estimated at 1 μM concentration at pH = 7.4. The ligand displacement measurement could not be applied to the RuCym complexes due to the release of the p-cymene ring followed by the formation of the mixed ligand complex with bpy and oxidation of the metal center (Figure S26), similarly to analogue complexes.[14],[26],[27]

The subject of series [2] is MES-SA. Briefly: Cytotoxicity in triple coculture, MES-SA mCherry. The class given is cell-based, human. To be noted: MES-SA/B1, MES-SA/Dx5, 144 h. The procedure: Cell lines were purchased from the American Type Culture Collection (ATCC). MES-SA/B1 is a human MDR1-transfected derivative of MES-SA, and MES-SA mCherry, MES-SA/B1 mOrange, and MES-SA/Dx5 eGFP were engineered to stably express the respective fluorescent proteins previously.[62] Cells were kept in culture medium (DMEM) supplemented with 10% fetal bovine serum, 2 mM L-glutamine, 100 units/mL penicillin, and 100 μg/mL streptomycin (Thermo Fisher). One week before use, MES-SA/Dx5 eGFP cells were treated with 0.5 μM doxorubicin to ensure ABCB1/P-gp expression.
The tested compounds were dissolved in 50% (v/v) DMSO/PBS’ buffer to prepare 5–10 mM stock solutions, which were diluted in complete culture medium. Constitutive expression of the fluorescent proteins allowed multiplexing in cytotoxicity experiments.[62] Cells were mixed before seeding in 384-well plates: in double cocultures, MES-SA mCherry and MES-SA/Dx5 eGFP cells were seeded at 1250–1250 cells/well (in total 2500 cells/well); while in triple cocultures, MES-SA mCherry, MES-SA/Dx5 eGFP and MES-SA/B1 mOrange cells were seeded at 800–800–800 cells/well (in total 2400 cells/well). Serial dilutions of the compounds were added 24 h after seeding. To address the effect of P-gp function, TQ was added at a nontoxic concentration (0.4 μM) 15 min before the test compounds. The intensity of the fluorescent proteins, which is proportional to cell mass, was measured after 144 h of incubation at the respective fluorescent channels (excitation/emission: eGFP: 485 nm/510 nm; mOrange: 545 nm/567 nm; mCherry: 585 nm/610 nm). pIC50 values were calculated by a custom program written by Judit Sessler in C#.[62] IC50 values and standard deviation were calculated from average pIC50 values from at least 3 independent measurements.

Series [3] can be described thus: pKa of the ligands by UV–vis titration. The class given is physicochemical. To be noted: for pKa: 0.20 M KNO3, UV–vis, I = 0.20 M KNO3, 10 equiv. EDTA. On the procedure: Physico-chemical properties such as aqueous solubility, lipophilicity, and the actual protonation state at a given pH are known to influence the pharmacokinetic behavior of a drug.
An Agilent Cary 8454 diode array spectrophotometer was utilized to obtain UV–vis spectra in the wavelength range 190–1100 nm. The path length (l) was 1 or 2 cm in most cases (the actual l is always indicated in the legends of the figures). The concentrations of the ligands and complexes were between 36 and 100 μM. The ligands were titrated in the presence of 10 equiv of EDTA. Individual samples contained 0–37 μM HSA, 0–206 μM MIM, 0–759 μM AHA, or 0–733 μM FHA. Spectra were always background and baseline corrected. The computer program HypSpec[64] was used to obtain stability constants.

Series [4] is described as follows: Thermodynamic aqueous solubility at pH 7.4. It counts as physicochemical. To be noted: 10 mM HEPES buffer, thermodynamic from solid, pH 7.4 (10 mM HEPES), 25.0 °C, read-out: thermodynamic aqueous solubility S7.4. On the procedure: The concentration of the compounds was determined by UV–vis spectrophotometry. For calibration, stock solutions of the compounds were used with known concentrations dissolved in 100% DMSO, 75% DMSO, and 50% (v/v) DMSO/buffered aqueous solutions.

The test system of the next series is Colo320. Description: Cytotoxicity, Colo320. It counts as cell-based, human. To be noted: this work. From the text: Supplementary Information
(11 pictures or pasted objects on this page, not shown here)

Series [5] deals with MES-SA. To be noted: monoculture, PrestoBlue; ref SI3; cited from earlier work.
The test system of the next series is MES-SA/Dx5. To be noted: monoculture, ref SI3, cited from earlier work.
The next series has as its system A431. Also noted: method as in earlier work. To be noted: monoculture, 72 h, PrestoBlue; ref SI3; cited from earlier work.
The next series deals with A431-B1. Further details: method as in earlier work. To be noted: monoculture, ref SI3, cited from earlier work.

Values after ≈ are worked out from the molar mass of the structure shown. Read-outs that look alike come from different tables or passages of the source.

Consider two compounds from PMC11653257, “Organometallic Half-Sandwich Complexes of 8-Hydroxyquinoline-Derived Mannich Bases with Enhanced Solubility: Targeting Multidrug Resistant Cancer” (Inorganic Chemistry, 2024).

In general, IC50 refers to the point on the concentration scale where inhibition reaches its midpoint. As usually defined, the solubility (thermodynamic) is the concentration in solution at equilibrium with solid.

Turning to [RhCp*(HQCl-Pip)Cl]Cl [(3)], the “logK’ [M(arene)L]7.4 conditional formation constant” value in [1] worked out at 11.89 ± 0.03. In addition, in the series on MES-SA [2], the IC50 is 2.11 µM.

In the case of `Oc1c(CN2CCCCC2)cc(Cl)c2cccnc12` [HQCl-pip, 5-chloro-7-(piperidin-1-ylmethyl)quinolin-8-ol], the pKa amounted to 11.3 ± 0.12 in series [3] (read-out: pKa (Npyr/pipH+)), 2.09 ± 0.05 in [3] (read-out: pKa (NqH+)) and 7.42 ± 0.03 in series [3] (read-out: pKa (OH)). The “fraction of HL” value in [3] (pH 7.4, based on the pKa values) is 42%. The solubility (thermodynamic) in series [4] was found to be 254 ± 3 µM (≈ 70.3 µg/mL). Further, the “SR (Colo205 / Colo320)” value in the series on Colo320 was 2.4. Besides, the IC50 is 2.49 ± 0.39 µM in the series on MES-SA [5]; 0.29 ± 0.05 µM with MES-SA/Dx5 (PrestoBlue); 6.67 ± 1.69 µM in the series with A431; 1.69 ± 0.27 µM with A431-B1 (72 h, PrestoBlue). Further, the “SR (MES-SA / MES-SA/Dx5)” value in the series with MES-SA/Dx5 (+ 1 µM TQ) is listed as 1.31; with MES-SA/Dx5, 8.71. In addition, the “SR (A431 / A431-B1)” value in the series on A431-B1 was 3.96.
